Test results taken from ChEMBL document CHEMBL1152560, “Substituted 2-arylbenzothiazoles as kinase inhibitors: hit-to-lead optimization” (Bioorg Med Chem, 2009).

Tests used:
[1] = target: Ephrin type-A receptor 7 (Homo sapiens) (UniProt Q15375); test: Residual activity of EPHA7 at 1 uM by microplate scintillation counting
[2] = system: Fibroblast growth factor receptor 1 (Homo sapiens), P11362 [V561M]; test: Residual activity of FGFR1 V561M mutant at 0.1 uM by microplate scintillation counting
[3] = target: T1, Serine/threonine-protein kinase Nek1 (Homo sapiens) (UniProt Q96PY6); test: Residual activity of NEK1 at 0.1 uM by microplate scintillation counting
T1 sequence (whole entry): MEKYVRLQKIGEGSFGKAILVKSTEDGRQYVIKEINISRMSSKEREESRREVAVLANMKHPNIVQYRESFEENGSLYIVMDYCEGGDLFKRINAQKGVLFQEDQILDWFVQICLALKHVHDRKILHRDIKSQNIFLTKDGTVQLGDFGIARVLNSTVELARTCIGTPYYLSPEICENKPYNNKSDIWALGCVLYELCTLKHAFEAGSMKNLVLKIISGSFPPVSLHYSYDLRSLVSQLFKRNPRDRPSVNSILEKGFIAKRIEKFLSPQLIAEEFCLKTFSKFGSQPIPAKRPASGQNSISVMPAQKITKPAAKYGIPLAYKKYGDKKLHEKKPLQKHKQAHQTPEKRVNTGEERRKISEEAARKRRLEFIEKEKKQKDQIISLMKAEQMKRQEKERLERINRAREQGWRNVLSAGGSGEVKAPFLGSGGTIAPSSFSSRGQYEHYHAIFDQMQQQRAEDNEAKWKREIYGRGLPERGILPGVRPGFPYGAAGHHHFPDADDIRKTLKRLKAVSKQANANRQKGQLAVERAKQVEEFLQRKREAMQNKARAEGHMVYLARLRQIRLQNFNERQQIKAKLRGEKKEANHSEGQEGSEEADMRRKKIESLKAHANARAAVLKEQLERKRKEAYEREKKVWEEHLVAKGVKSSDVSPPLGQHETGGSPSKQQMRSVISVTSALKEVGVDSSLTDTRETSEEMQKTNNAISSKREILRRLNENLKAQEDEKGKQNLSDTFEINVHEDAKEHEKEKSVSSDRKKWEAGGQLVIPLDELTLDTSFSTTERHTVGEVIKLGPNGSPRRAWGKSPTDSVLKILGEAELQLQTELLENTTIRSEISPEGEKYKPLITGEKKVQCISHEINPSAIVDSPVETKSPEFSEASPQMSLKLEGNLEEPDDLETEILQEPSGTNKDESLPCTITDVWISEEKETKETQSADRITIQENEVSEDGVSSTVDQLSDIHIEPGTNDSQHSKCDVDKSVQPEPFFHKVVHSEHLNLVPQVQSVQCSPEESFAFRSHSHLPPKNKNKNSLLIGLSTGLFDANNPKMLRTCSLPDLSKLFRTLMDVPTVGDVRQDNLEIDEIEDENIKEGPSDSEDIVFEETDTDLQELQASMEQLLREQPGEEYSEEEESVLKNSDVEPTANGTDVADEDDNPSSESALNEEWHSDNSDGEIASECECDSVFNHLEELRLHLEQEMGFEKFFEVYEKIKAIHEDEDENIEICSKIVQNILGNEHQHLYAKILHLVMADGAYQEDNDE

[4] = target: CDK4/Cyclin D3 (Homo sapiens) (UniProt P11802+P30281); test: Residual activity of CDK4/Cyclin D3 at 10 uM by microplate scintillation counting; assay type: protein-complex assay
[5] = system: Epidermal growth factor receptor (Homo sapiens), P00533 [L858R]; test: Residual activity of EGFR L858R mutant at 0.1 uM by microplate scintillation counting
[6] = target: Protein kinase C beta type (Homo sapiens) (UniProt P05771); test: Residual activity of PKCbeta2 at 10 uM by microplate scintillation counting
Protein kinase C beta type (Homo sapiens), sequence (P05771 2-671 limits assumed): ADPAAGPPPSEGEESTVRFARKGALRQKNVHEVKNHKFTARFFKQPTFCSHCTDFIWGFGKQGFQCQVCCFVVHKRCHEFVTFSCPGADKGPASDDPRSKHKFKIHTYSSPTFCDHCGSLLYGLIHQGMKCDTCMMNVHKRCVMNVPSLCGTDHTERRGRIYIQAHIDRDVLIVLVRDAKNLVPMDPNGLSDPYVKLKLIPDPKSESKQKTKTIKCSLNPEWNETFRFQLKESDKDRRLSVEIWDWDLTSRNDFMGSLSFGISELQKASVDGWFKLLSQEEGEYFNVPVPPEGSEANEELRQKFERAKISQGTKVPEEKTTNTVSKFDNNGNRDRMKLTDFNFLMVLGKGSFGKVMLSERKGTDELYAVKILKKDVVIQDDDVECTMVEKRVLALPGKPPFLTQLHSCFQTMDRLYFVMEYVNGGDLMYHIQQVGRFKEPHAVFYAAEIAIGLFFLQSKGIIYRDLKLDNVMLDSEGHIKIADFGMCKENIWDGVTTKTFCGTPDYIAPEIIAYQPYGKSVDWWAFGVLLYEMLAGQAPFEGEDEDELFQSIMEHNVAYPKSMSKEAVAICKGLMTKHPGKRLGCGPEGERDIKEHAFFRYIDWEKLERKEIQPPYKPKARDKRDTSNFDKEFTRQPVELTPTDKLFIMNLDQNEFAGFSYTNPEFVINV

[7] = target: T2, Serine/threonine-protein kinase D3 (Homo sapiens) (UniProt O94806); test: Residual activity of PKCnu at 10 uM by microplate scintillation counting
T2 sequence (whole entry): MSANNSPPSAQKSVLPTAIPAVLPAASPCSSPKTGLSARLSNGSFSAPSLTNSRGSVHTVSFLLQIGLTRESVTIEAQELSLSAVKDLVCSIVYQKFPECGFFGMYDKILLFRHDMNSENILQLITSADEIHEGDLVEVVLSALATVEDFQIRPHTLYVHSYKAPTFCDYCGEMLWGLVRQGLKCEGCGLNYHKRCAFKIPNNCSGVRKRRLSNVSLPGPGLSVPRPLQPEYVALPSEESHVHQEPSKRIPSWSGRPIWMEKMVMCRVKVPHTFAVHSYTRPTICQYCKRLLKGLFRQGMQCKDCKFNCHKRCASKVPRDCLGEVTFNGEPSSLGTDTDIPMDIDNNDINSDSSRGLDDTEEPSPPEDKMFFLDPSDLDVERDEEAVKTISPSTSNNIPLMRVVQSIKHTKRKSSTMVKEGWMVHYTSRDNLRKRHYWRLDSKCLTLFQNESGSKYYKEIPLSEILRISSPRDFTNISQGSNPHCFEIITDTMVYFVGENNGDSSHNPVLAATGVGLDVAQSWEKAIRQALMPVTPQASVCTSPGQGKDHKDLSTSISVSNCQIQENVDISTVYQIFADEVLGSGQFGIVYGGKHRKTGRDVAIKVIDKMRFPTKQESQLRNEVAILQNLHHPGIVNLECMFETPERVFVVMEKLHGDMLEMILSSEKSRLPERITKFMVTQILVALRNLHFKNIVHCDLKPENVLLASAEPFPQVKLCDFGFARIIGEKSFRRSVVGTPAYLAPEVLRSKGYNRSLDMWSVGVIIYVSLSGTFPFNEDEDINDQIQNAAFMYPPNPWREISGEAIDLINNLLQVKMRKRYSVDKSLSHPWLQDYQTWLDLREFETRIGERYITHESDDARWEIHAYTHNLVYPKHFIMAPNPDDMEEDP

[8] = target: Serine/threonine-protein kinase PLK3 (Homo sapiens) (UniProt Q9H4B4); test: Residual activity of PLK3 at 0.1 uM by microplate scintillation counting
Serine/threonine-protein kinase PLK3 (Homo sapiens), sequence (Q9H4B4 whole entry, looked up): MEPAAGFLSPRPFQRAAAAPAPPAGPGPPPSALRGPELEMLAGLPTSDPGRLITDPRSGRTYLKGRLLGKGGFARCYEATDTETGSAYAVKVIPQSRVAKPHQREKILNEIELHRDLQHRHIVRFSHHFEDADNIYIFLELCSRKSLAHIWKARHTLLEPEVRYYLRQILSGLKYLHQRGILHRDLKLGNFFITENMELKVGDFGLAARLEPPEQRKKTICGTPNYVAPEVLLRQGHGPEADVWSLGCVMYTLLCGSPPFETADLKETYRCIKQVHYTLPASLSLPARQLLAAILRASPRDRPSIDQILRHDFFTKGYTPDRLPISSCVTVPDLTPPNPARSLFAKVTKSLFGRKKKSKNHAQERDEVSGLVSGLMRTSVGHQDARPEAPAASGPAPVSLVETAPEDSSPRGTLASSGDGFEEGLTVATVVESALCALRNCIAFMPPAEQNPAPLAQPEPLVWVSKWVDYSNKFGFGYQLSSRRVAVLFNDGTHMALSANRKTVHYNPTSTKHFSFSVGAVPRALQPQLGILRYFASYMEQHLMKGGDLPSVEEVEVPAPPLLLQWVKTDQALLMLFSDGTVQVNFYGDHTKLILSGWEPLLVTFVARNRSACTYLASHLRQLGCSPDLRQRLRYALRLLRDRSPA

Ephrin type-A receptor 7 (Homo sapiens), sequence (Q15375 28-998 limits assumed): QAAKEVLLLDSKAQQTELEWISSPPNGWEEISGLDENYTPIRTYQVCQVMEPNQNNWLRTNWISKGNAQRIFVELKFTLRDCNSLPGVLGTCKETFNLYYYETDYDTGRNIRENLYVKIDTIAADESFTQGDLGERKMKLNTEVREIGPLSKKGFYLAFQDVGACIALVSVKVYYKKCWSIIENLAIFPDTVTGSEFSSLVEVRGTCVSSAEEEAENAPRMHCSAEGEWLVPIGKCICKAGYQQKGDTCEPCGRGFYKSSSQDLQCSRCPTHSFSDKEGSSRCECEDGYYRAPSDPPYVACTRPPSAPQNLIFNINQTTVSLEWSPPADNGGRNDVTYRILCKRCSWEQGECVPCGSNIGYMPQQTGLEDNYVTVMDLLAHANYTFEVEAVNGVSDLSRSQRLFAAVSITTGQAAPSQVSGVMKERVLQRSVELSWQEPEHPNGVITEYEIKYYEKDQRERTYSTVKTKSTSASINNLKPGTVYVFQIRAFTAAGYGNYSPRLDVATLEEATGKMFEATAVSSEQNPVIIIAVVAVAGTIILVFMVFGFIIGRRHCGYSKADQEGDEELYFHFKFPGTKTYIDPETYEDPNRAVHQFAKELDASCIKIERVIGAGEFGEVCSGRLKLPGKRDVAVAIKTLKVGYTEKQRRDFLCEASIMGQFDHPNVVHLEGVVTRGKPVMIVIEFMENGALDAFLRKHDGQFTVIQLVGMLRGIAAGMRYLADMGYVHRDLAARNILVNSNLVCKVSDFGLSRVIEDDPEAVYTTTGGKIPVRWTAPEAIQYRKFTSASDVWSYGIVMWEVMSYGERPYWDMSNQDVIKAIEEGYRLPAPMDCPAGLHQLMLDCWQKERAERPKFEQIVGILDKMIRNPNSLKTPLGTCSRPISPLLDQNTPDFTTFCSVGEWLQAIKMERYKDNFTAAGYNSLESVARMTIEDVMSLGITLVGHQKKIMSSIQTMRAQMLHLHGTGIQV
Fibroblast growth factor receptor 1 (Homo sapiens), P11362 [V561M], sequence (P11362 whole entry V561M): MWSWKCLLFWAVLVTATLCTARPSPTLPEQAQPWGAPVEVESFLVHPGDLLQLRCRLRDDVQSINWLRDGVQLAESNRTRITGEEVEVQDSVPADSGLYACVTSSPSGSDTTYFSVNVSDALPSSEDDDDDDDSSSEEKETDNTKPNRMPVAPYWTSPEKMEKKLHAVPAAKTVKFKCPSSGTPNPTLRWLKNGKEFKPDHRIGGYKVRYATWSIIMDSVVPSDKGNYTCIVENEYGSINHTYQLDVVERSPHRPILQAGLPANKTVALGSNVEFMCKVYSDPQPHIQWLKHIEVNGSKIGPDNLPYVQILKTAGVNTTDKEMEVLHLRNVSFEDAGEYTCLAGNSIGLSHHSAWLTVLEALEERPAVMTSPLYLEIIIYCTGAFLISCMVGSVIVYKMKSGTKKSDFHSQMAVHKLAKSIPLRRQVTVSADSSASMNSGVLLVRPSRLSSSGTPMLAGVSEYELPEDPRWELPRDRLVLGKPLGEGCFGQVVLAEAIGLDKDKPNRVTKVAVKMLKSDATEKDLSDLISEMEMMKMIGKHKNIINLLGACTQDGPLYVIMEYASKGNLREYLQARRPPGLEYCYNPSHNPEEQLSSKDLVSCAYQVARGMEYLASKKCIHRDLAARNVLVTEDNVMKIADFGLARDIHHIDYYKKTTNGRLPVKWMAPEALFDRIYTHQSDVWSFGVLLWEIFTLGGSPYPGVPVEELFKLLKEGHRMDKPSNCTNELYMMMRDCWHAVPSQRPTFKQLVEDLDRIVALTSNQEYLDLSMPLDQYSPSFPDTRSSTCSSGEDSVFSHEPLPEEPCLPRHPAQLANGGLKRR

SMILES: COc1cc2c(Oc3ccc(-c4nc5ccccc5s4)cc3)ncnc2cc1OCCCN1CCN(C)CC1
- residual activity [1]: 102%
- residual activity [2]: 109%
- residual activity [3]: 87%
- residual activity [4]: 105%
- residual activity [5]: 93%
- residual activity [6]: 77%
- residual activity [7]: 52%
- residual activity [8]: 88%

SMILES: COc1cc2c(Oc3ccc(-c4nc5ccccc5s4)cc3)ncnc2cc1OCCCN1CCCC1
- residual activity [1]: 114%
- residual activity [2]: 108%
- residual activity [3]: 98%
- residual activity [4]: 98%
- residual activity [5]: 92%
- residual activity [6]: 69%
- residual activity [7]: 82%
- residual activity [8]: 87%

SMILES: COc1cc2c(Oc3ccc(-c4nc5ccccc5s4)cc3F)ncnc2cc1OCCCN1CCN(C)CC1
- residual activity [1]: 94%
- residual activity [2]: 93%
- residual activity [3]: 93%
- residual activity [4]: 93%
- residual activity [5]: 94%
- residual activity [6]: 53%
- residual activity [7]: 50%
- residual activity [8]: 87%
